Values of other authors as cited in patent US8420367B2, “Polynucleotides encoding mutant hydrolase proteins with enhanced kinetics and functional expression” (Promega Corporation, priority 2006, dated 2013).

Target: tetracysteine domain in a recombinant protein

In the case of O=C1OC2(c3ccccc31)c1ccc(O)c([As]3SCCS3)c1Oc1c2ccc(O)c1[As]1SCCS1 [FLASH, 4′,5′-bis(1,3,2-dithioarsolan-2-yl)fluorescein], the dissociation constant is listed as “nanomolar or lower”.
